Measurements as given in patent publication US8168646B2, “3,4-dihydroquinazoline derivatives” (Dongwoo Syntech Co., Ltd., priority 2007, dated 2012).

Key:
[1] = test system: human malignant melanoma (SK-MEL-2); assay: Growth inhibition, SRB assay, SK-MEL-2; assay type: cell-based; details: 72 hours, three independent experiments, read-out: Growth inhibition of cancer cell: GI50, SK-MEL-2
Experimental: (§1) T-type calcium channel blocking effects of the compounds of the present invention were tested according to an electrophysiological whole-cell patch-clamp method, which uses mammalian HEK293 cell line selectively expressing α1G among T-type calcium channel encoding genes, wherein the α1G is mainly expressed at nerve cells (derived from […]), as described in Korean Patent No. 0610731 and Monteil, A., et al., J. Biol. Chem. 2000, 275, 6090-6100. Also, cytotoxicities of the compounds according to the present invention were tested according to a 3-(4,5-dimethylthiazol-2-yl)-2,5-diphenyltetrazolium bromide (MTT) assay. Further, growth inhibition effects against cancer cell lines of the compounds according to the present invention were tested according to a sulforhodamine B (SRB) assay, as disclosed in Skehan, P. et al., J. Natl Cancer Inst. 1990, 82, 1107-1112.
(§2) Experiment 3: Analysis for Growth Inhibition Against Cancer Cell Lines Using SRB Assay
(§3) The compounds according to the present invention were evaluated for their growth inhibition against five cancer cell lines, including human lung carcinoma (A-549), human prostate cancer (DU 145), human colon cancer (HT-29), human malignant melanoma (SK-MEL-2) and human ovarian cancer (SK-OV-3) using sulforhodamine B (SRB) assay. All cell lines were grown in RPMI 1640 (Gibco BRL) supplemented with 10% (v/v) heat-inactivated fetal bovine serum (FBS) and maintained at 37° C. in a humidified atmosphere with 5% CO2. The cells were seeded into 96-well plate. Various concentrations of compounds were added to each well in triplicate and then incubated at 37° C. with 5% CO2 for 72 hours such that cells are in the exponential phase of growth at the time of drug addition. After incubation, 100 μL of formalin solution was gently added to the wells. Microplates were left for 30 min at room temperature and washed five times with tap water. One hundred microliters of 0.4% SRB solution was added to each well and left at room temperature for 30 min. SRB was removed and the plates were washed five times with 1% acetic acid before air-drying. Bound SRB was solubilized with 100 μL of 10 mM unbuffered Tris-base solution (Sigma) and plates were left on a plate shaker for at least 10 min. The optical density was measured using a microplate reader (Versamax, Molecular Devices) with a 520 nm wavelength and the growth inhibition concentration was expressed as GI50.

[2] = test system: human lung carcinoma (A-549); assay: Growth inhibition, SRB assay, A-549; assay type: cell-based; details: A549, 72 hours, three independent experiments, read-out: Growth inhibition of cancer cell: GI50, A-549
Experimental: as §1, §2, §3

[3] = test system: human ovarian cancer (SK-OV-3); assay: Growth inhibition, SRB assay, SK-OV-3; assay type: cell-based; details: 72 hours, three independent experiments, read-out: Growth inhibition of cancer cell: GI50, SK-OV-3
Experimental: as §1, §2, §3

[4] = test system: human colon cancer (HT-29); assay: Growth inhibition, SRB assay, HT-29; assay type: cell-based; details: for GI50: Homo sapiens, HT-29, SRB assay, 72 hours, three independent experiments, read-out: Growth inhibition of cancer cell: GI50, HT-29
Experimental: as §1, §2, §3

[5] = test system: human prostate cancer (DU 145); assay: Growth inhibition, SRB assay, DU 145; assay type: cell-based; details: 72 hours, three independent experiments, read-out: Growth inhibition of cancer cell: GI50, DU 145
Experimental: as §1, §2, §3

[6] = biological target: T1, T-type calcium channel (α1G) (Homo sapiens, UniProt O43497); assay: T-type calcium channel blocking, electrophysiological whole-cell patch-clamp in HEK293 cells expressing α1G; assay type: cell-based; details: dose-response curve, three independent experiments, read-out: Channel blocking effect (IC50) T-type (α1G)
T1 construct: expressed in transfected cells
Experimental: as §1
Experiment 1: Methods for Culturing HEK293 cells and measuring T-type Calcium Channel Activity Using an Electrophysiological Method
HEK293 cells were cultured in Dulbecco's modified Eagle's medium (DMEM) supplemented with 10% fetal bovine serum (FBS) and 1% penicillin/streptomycin (v/v) in 36.5° C. humidified incubator (95% air-5% CO2). […] The cells used for T-type calcium channel activity assay were cultured on a cover slip coated with poly-L-lysine (0.5 mg/mL) whenever sub-cultured, and their calcium channel activity was recorded 2 to 7 days after the cultivation. Current of the T-type calcium channel at a single cell level was measured according to an electrophysiological whole-cell patch-clamp method using EPC-9 amplifier (HEKA, Germany). […] Inward current caused by the T-type calcium channel activation which occurred when the cells were converted into a whole-cell recording mode by stabbing a microglass electrode having 3-4 MΩ resistance which was filled with the cell interior solution into a single cell and de-polarized at −30 mV (50 ms duration period) every 10 s with fixing membrane potential to −100 mV was measured according to a T-type calcium channel protocol activated at low current.

five cancer cell lines = assay: Growth inhibition, SRB assay, five cancer cell lines overall; assay type: cell-based, human
Experimental: as §2
as §3, with “One hundred microliters of 0.4% SRB solution was added to each well and left at room temperature for 30 min. SRB was removed and the plates were washed five times with 1% acetic acid before air-drying. Bound SRB was solubilized with 100 μL of 10 mM unbuffered Tris-base solution (Sigma) and plates were left on a plate shaker for at least 10 min.” left out
The biological activities of doxorubicin and KYS05042 disclosed in Korean Patent No. 0610731 were evaluated as references, and the results are indicated in Table 2.

T1 sequence (O43497 whole entry): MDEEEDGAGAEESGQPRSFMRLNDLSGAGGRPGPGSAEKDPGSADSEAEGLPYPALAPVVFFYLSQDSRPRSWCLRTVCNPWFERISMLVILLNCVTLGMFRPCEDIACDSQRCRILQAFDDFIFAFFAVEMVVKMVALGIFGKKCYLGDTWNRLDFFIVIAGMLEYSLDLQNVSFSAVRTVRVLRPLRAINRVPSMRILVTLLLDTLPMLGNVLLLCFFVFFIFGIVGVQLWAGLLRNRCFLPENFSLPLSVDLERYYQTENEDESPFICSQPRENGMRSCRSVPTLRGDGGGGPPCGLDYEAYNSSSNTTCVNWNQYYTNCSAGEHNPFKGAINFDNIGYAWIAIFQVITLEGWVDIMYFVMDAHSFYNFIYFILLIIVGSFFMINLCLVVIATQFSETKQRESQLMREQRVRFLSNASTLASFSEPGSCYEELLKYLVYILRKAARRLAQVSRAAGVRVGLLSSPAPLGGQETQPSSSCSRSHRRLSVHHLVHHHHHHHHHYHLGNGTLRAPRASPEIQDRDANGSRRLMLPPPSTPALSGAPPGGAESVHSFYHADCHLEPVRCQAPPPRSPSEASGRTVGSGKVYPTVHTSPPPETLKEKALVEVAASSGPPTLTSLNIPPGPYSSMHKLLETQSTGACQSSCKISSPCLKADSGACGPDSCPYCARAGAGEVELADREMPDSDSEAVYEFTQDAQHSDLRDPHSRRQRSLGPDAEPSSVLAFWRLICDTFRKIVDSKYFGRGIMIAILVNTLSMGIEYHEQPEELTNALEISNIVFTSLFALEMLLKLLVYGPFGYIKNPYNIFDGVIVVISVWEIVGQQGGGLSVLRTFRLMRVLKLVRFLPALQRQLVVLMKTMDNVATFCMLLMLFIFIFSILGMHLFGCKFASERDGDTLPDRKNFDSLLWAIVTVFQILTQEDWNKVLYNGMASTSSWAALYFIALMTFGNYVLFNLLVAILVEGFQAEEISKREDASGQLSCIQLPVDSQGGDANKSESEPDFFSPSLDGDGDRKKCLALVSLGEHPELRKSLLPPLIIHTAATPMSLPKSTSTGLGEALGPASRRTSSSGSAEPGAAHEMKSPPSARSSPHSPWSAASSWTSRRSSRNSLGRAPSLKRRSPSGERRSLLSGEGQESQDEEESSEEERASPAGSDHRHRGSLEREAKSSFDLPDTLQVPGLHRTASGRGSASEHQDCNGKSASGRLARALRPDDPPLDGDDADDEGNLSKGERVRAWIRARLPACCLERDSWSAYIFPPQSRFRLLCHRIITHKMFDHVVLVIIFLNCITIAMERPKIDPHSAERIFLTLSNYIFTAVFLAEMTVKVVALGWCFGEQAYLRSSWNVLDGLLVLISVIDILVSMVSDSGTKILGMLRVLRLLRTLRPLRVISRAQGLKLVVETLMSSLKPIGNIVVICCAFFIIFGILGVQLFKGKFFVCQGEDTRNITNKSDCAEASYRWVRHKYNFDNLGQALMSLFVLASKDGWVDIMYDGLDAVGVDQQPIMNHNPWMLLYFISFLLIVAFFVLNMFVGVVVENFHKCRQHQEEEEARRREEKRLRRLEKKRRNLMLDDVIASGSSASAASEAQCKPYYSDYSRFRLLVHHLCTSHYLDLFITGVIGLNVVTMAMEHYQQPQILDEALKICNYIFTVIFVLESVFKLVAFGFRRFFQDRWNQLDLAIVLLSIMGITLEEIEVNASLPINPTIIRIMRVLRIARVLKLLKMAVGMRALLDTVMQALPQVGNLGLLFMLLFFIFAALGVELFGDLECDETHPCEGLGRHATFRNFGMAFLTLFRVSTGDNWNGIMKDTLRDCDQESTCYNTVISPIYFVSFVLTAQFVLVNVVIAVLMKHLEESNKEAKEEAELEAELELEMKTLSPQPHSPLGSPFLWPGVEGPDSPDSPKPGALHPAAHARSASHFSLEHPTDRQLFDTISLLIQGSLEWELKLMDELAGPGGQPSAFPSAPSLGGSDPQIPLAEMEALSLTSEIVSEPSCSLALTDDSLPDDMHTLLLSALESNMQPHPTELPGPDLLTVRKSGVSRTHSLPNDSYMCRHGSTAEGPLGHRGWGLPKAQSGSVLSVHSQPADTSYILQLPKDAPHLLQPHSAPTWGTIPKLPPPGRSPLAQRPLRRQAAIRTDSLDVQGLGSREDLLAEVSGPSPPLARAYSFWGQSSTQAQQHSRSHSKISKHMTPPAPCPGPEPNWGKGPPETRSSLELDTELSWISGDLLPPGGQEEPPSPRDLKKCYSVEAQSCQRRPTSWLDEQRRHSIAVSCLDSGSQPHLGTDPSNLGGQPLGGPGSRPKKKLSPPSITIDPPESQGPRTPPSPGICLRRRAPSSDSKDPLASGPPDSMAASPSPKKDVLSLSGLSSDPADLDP

GI50 [1] [nM] | GI50 [2] [nM] | GI50 [3] [nM] | GI50 [4] [nM] | GI50 [5] [nM] | IC50 [6] [nM] | SMILES | Times stronger growth inhibition compared to KYS05042 (five cancer cell lines; compared to KYS05042) | Growth inhibition compared to doxorubicin (five cancer cell lines; compared to doxorubicin) | Times stronger activity against human colon cancer cell line compared to KYS05042 ([4]; human colon cancer cell line, compared to KYS05042) | Times stronger activity against human colon cancer cell line compared to doxorubicin ([4]; human colon cancer cell line, compared to doxorubicin)
110 ± 10 | 160 ± 10 | 120 ± 20 | 210 ± 40 | 60 ± 10 |  | COc1cccc2c1C(=O)c1c(O)c3c(c(O)c1C2=O)C[C@@](O)(C(=O)CO)C[C@@H]3O[C@H]1C[C@H](N)[C@H](O)[C@H](C)O1 [Doxorubicin, doxorubicin, reference compound] |  |  |  | 
690 ± 150 | 870 ± 180 | 2760 ± 760 | 610 ± 120 | 2490 ± 530 | 260 ± 10 | CN(CCCCCN1CCCC1)C1=Nc2ccccc2C(CC(=O)NCc2ccccc2)N1c1ccc(-c2ccccc2)cc1 (stereo not drawn) [KYS05080] |  |  |  | 
1910 ± 110 | 1770 ± 160 | 1950 ± 40 | 520 ± 240 | 1780 ± 170 | 230 ± 30 | COC(=O)CC1c2ccccc2N=C(N(C)CCCCCN(C)C)N1c1ccc(-c2ccccc2)cc1 (stereo not drawn) [KYS05089, 2-[N-(5-N′,N′-Dimethylaminopentyl)-N-Methylamino]-3-(4-Biphenylyl)-4-Methoxycarbonylmethyl-3,4-Dihydroquinazoline] |  |  |  | 
480 ± 130 | 170 ± 20 | 660 ± 130 | 40 ± 10 | 190 ± 20 | 41 ± 1 | CN(C)CCCCCN(C)C1=Nc2ccccc2C(CC(=O)NCc2ccccc2)N1c1ccc(-c2ccccc2)cc1 (stereo not drawn) [KYS05090, 4-(N-Benzylacetamino)-3-(4-Biphenylyl)-2-[N-(5-N′,N′-Dimethylaminopentyl)-N-Methylamino]-3,4-Dihydroquinazoline] | about 10 times | nearly equipotent growth inhibition | about 40 times | about 5 times
